Values quoted from earlier work as cited in US9782610B2, “Nontoxic, non-endocrine disrupting, cytoprotective, UV-radiation resistant sunblock compositions” (3rd Rock Sunblock, Inc., priority 2007, dated 2017).

Columns and labels:
estrogenic activity = conditions: uterine wet weight, cell height, cell proliferation assays

Row | Structure (SMILES) | activity in cells / cancer cell growth (cancer cells) | estrogenicity (estrogenic activity)
1 | CC1CC(OC(=O)c2ccccc2O)CC(C)(C)C1 (stereo not drawn) [homosalate] | made cancer cells grow more rapidly | 
2 | CCCCC(CC)COC(=O)c1ccc(N(C)C)cc1 (stereo not drawn) [octyl-dimethyl-PABA] | made cancer cells grow more rapidly | 
3 | COc1ccc(C(=O)c2ccccc2)c(O)c1 [Benzophenone-3] | made cancer cells grow more rapidly | highly estrogenic
4 | Cc1ccc(C=C2C(=O)C3(C)CCC2C3(C)C)cc1 (stereo not drawn) [Example 4-MBC, 3-(4-methylbenxylidene) camphor] | made cancer cells grow more rapidly | highly estrogenic
